In ChEMBL document CHEMBL4680303, “Amine skeleton-based c-di-GMP derivatives as biofilm formation inhibitors” (Bioorg Med Chem Lett, 2021):
The source made the active and inactive calls. The rule behind the calls is not given here.

Assays:
Escherichia coli [1] = assay: Antibacterial activity against Escherichia coli DH5alpha assessed as bacterial cell density at 500 uM relative to control; format: functional, DH5[alpha]
Escherichia coli [2] = assay: Antibiofilm activity against Escherichia coli DH5alpha assessed as inhibition of biofilm formation at 500 uM incubated for 24 hrs by crystal violet staining based microtiter plate reader assay relative to control; values are per cent of control; conditions: DH5[alpha]
Streptococcus mutans [3] = assay: Antibacterial activity against Streptococcus mutans NBRC13955 assessed as bacterial cell density at 500 uM relative to control; format: functional
Staphylococcus aureus [4] = assay: Antibiofilm activity against Staphylococcus aureus NBRC13276 assessed as inhibition of biofilm formation at 500 uM incubated for 24 hrs by crystal violet staining based microtiter plate reader assay relative to control; values are per cent of control; conditions: NBRC13276, 24 h
Streptococcus mutans [5] = assay: Antibiofilm activity against Streptococcus mutans NBRC13955 assessed as inhibition of biofilm formation at 500 uM incubated for 24 hrs by crystal violet staining based microtiter plate reader assay relative to control; values are per cent of control; conditions: NBRC13955, 24 h
Staphylococcus aureus [6] = assay: Antibacterial activity against Staphylococcus aureus NBRC13276 assessed as bacterial cell density at 500 uM relative to control; format: functional
Pseudomonas aeruginosa [7] = assay: Antibacterial activity against Pseudomonas aeruginosa NBRC13275 assessed as bacterial cell density at 500 uM relative to control; format: functional
Pseudomonas aeruginosa [8] = assay: Antibiofilm activity against Pseudomonas aeruginosa NBRC13275 assessed as inhibition of biofilm formation at 500 uM incubated for 6 hrs by crystal violet staining based microtiter plate reader assay relative to control; values are per cent of control; conditions: NBRC13275, 6 h
[9] = Growth inhibition of Staphylococcus aureus NBRC13276 at 1000 uM
Pseudomonas aeruginosa [10] = assay: Antimicrobial activity against Pseudomonas aeruginosa assessed as inhibition of flagella synthesis relative to control; format: functional, organism-based

| SMILES | Activity (Escherichia coli [1]) [%] | biofilm formation (% of control) at 500 µM (Escherichia coli [2]) [%] | Activity (Streptococcus mutans [3]) [%] | biofilm formation (% of control) at 500 µM (Staphylococcus aureus [4]) [%] | biofilm formation (% of control) at 500 µM (Streptococcus mutans [5]) [%] | Activity (Staphylococcus aureus [6]) [%] | Activity (Pseudomonas aeruginosa [7]) [%] | biofilm formation (% of control) at 500 µM (Pseudomonas aeruginosa [8]) [%] | growth inhibition (GI) [9] | Activity (Pseudomonas aeruginosa [10]) |
| --- | --- | --- | --- | --- | --- | --- | --- | --- | --- | --- |
| Nc1nc2c(ncn2CC(=O)N2CCNCCN(C(=O)Cn3cnc4c(=O)[nH]c(N)nc43)CC2)c(=O)[nH]1 | 95 | 103 | 121 | 92 | 92 | 103 | 105 | 105 | – | – |
| CC(=O)N1CCN(C(=O)Cn2cnc3c(=O)[nH]c(N)nc32)CCN(C(C)=O)CCN(C(=O)Cn2cnc3c(=O)[nH]c(N)nc32)CC1 | 52 | 36 | 136 | 20 | 40 | 150 | 90 | 60 | Non-Toxic | inactive |
| CC(=O)N(CCNC(=O)Cn1cnc2c(=O)[nH]c(N)nc21)CCNC(=O)Cn1cnc2c(=O)[nH]c(N)nc21 | 101 | 116 | 154 | 76 | 87 | 108 | 119 | 104 | – | – |
| NCCN(CCNC(=O)Cn1cnc2c(=O)[nH]c(N)nc21)C(=O)Cn1cnc2c(=O)[nH]c(N)nc21 | 95 | 104 | 98 | 87 | 87 | 124 | 116 | 103 | – | – |
| Nc1nc2c(ncn2CC(=O)NCCN(CCNC(=O)Cn2cnc3c(=O)[nH]c(N)nc32)CC(=O)O)c(=O)[nH]1 | 95 | 138 | 188 | 87 | 78 | 99 | 126 | 82 | – | – |
| Nc1nc2c(ncn2CC(=O)N2CCN(C(=O)OCc3ccccc3)CCN(C(=O)Cn3cnc4c(=O)[nH]c(N)nc43)CCN(C(=O)OCc3ccccc3)CC2)c(=O)[nH]1 | 91 | 138 | 143 | 80 | 17 | 111 | 105 | 86 | – | – |
| Nc1nc2c(ncn2[C@@H]2O[C@@H]3COP(=O)(O)O[C@H]4[C@@H](O)[C@H](n5cnc6c(=O)[nH]c(N)nc65)O[C@@H]4COP(=O)(O)O[C@H]3[C@H]2O)c(=O)[nH]1 | 76 | 81 | 98 | 123 | 18 | 106 | 78 | 48 | – | – |
| CC(=O)NCCNCCNC(=O)Cn1cnc2c(=O)[nH]c(N)nc21 | 85 | 108 | 92 | 135 | 101 | 100 | 119 | 99 | – | – |
| Nc1nc2c(ncn2CC(=O)N2CCN(CC(=O)O)CCN(C(=O)Cn3cnc4c(=O)[nH]c(N)nc43)CCN(CC(=O)O)CC2)c(=O)[nH]1 | 85 | 83 | 105 | 74 | 90 | 117 | 90 | 82 | – | – |
| CC(C)C(=O)N(CCNC(=O)Cn1cnc2c(=O)[nH]c(N)nc21)CCNC(=O)Cn1cnc2c(=O)[nH]c(N)nc21 | 97 | 107 | 104 | 103 | 147 | 92 | 98 | 83 | – | – |
| Nc1nc2c(ncn2CC(=O)N2CCNCCN(C(=O)Cn3cnc4c(=O)[nH]c(N)nc43)CCNCC2)c(=O)[nH]1 | 93 | 133 | 138 | 89 | 96 | 108 | 100 | 85 | – | – |
| CCC(=O)N1CCN(C(=O)Cn2cnc3c(=O)[nH]c(N)nc32)CCN(C(=O)CC)CCN(C(=O)Cn2cnc3c(=O)[nH]c(N)nc32)CC1 | 105 | 153 | 117 | 76 | 46 | 124 | 118 | 76 | – | – |
| Nc1nc2c(ncn2CC(=O)NCCNCCNC(=O)Cn2cnc3c(=O)[nH]c(N)nc32)c(=O)[nH]1 | 95 | 99 | 109 | 42 | 98 | 102 | 112 | 87 | – | – |
| CC(C)C(=O)N1CCN(C(=O)Cn2cnc3c(=O)[nH]c(N)nc32)CCN(C(=O)C(C)C)CCN(C(=O)Cn2cnc3c(=O)[nH]c(N)nc32)CC1 | 559 | 118 | 206 | 87 | 88 | 267 | 313 | 114 | – | – |
| CCC(=O)N(CCNC(=O)Cn1cnc2c(=O)[nH]c(N)nc21)CCNC(=O)Cn1cnc2c(=O)[nH]c(N)nc21 | 95 | 97 | 106 | 85 | 125 | 92 | 98 | 94 | – | – |
